Source: PubChem BioAssay (NCI)
Values joined by “and” are separate entries in the source; they are usually repeats but may differ in a detail not shown here. Equal values may be shown once.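 All cell lines were grown in 96-well plates and treated with compound for 48 hours. GI50 marks 50% less growth. TGI: total growth inhibition.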

Columns and labels:
Assay in all cases: growth of human tumour cells (NCI), 48 h
DU-145 prostate = tested on: DU-145 prostate
MDA-MB-435 = tested on: MDA-MB-435
MCF7 breast = tested on: MCF7 breast
T-47D breast = tested on: T-47D breast
HOP-18 NSCLC = tested on: HOP-18 NSCLC
KM20L2 colon = tested on: KM20L2 colon
M19-MEL melanoma = tested on: M19-MEL melanoma
MDA-N = tested on: MDA-N

Row | Structure (SMILES) | GI50 (DU-145 prostate) | TGI (DU-145 prostate) | GI50 (MDA-MB-435) | TGI (MDA-MB-435) | GI50 (MCF7 breast) | TGI (MCF7 breast) | GI50 (T-47D breast) | TGI (T-47D breast) | TGI (HOP-18 NSCLC) | TGI (KM20L2 colon) | TGI (M19-MEL melanoma) | TGI (MDA-N) | GI50 (KM20L2 colon) | GI50 (M19-MEL melanoma) | GI50 (MDA-N)
1 | C=C1C(=O)O[C@H]2[C@H]1CC/C(Cn1cc(-c3ccc(F)cc3)nn1)=C\CC[C@@]1(C)O[C@@H]21 | 0.69 µM | 1.99 µM | 1 µM | 2.39 µM |  |  |  |  |  |  |  |  |  |  | 
2 | ClCc1ccccc1Cn1cnc2c(Cl)ncnc21 | 5.65 µM | 34.4 µM | 3.01 µM | 9.49 µM | 11.1 µM | > 100 µM | 17.9 µM | 62 µM |  |  |  |  |  |  | 
3 | CCOC(=O)C12C(C(=O)OC)=C(C)N(NC(=O)Nc3ccccc3)C1(N)N(NC(=O)Nc1ccccc1)C(C)=C2C(=O)OC (stereo unspecified) |  |  |  |  |  |  |  |  | > 86 µM | 42.8 µM | 33.2 µM |  |  |  | 
4 | O=C(/C=C1\C(=O)N(Cc2ccccc2)c2ccccc21)c1ccc(OCCN2CCCCC2)cc1 | 2.26 µM | 5.05 µM | 2.49 µM | 9.33 µM |  |  | 1.6 µM | 3.4 µM |  |  |  |  |  |  | 
5 | NC(=O)c1cccc(OCC(O)CO)c1 (stereo unspecified) |  | > 100 µM |  |  |  | > 100 µM |  | > 100 µM |  |  |  | > 100 µM |  |  | 
6 | COc1ccc2oc(-c3ccc(OC)c(OC)c3OC)cc(=O)c2c1 |  |  |  |  |  |  |  |  |  | 63.1 µM | > 100 µM |  |  |  | 
7 | Cc1nc(N)nc(N)c1CCCc1ccccc1 |  |  |  |  |  |  |  |  |  | > 100 µM | > 100 µM |  |  |  | 
8 | CCC1(OC(=O)CN)C(=O)OCc2c1cc1n(c2=O)Cc2cc3ccccc3nc2-1 (stereo unspecified) | 0.00536 µM | 0.551 µM | 0.13 µM | 0.348 µM and 0.504 µM | 0.0251 µM |  | 0.0426 µM | 0.916 µM | 28.4 µM |  | 0.237 µM |  | 0.056 µM | 0.0174 µM | 0.122 µM and 0.36 µM
9 | CC1(C)OC(=O)C(C#N)=C1C[n+]1ccccc1 |  | > 10 µM |  | > 10 µM |  | > 10 µM |  | > 10 µM |  |  |  | > 10 µM |  |  | 
10 | CC(=O)/C=C/C1=C(c2csc3ccccc23)c2ccccc2CC1 | 29.4 µM | > 100 µM | 21.6 µM | 70.7 µM | 21.8 µM | 87.8 µM | 22.6 µM | > 100 µM |  |  |  |  |  |  | 
11 | COc1cc(OC)c(OC)cc1/C=C/c1cnnc2ccccc12 |  | > 10 µM |  | 6.52 µM |  | > 10 µM |  | > 10 µM |  |  |  | > 10 µM |  |  | 
12 | CCCCc1c2cnccc2c(CCCC)c2c1[nH]c1ccccc12 |  |  |  |  |  |  |  |  | 24.8 µM | > 100 µM | 24.9 µM |  |  |  | 
13 | Cc1ccc2c(c1)C(=O)c1c-2c(OCCCN(C)C)nc2ccccc12 | 2.81 µM | 13.9 µM | 1.54 µM | 2.97 µM | 0.609 µM | 2.03 µM | 7.95 µM | 26 µM |  |  |  |  |  |  | 
14 | C[C@H]1CNC(=O)c2cnn3ccc(nc23)N[C@H](C)c2cc(F)ccc2O1 | 2.26 µM | 12.8 µM | 8.84 µM | > 91.2 µM | 0.381 µM | > 100 µM | 1.6 µM | > 93.5 µM |  |  |  |  |  |  | 
15 | COc1ccc(/C=C2\SC(=Nc3ccccc3)NC2=O)cc1 | 11.4 µM | 71.5 µM | 2.14 µM | 5.34 µM | 2.68 µM | 42.1 µM | 6.46 µM | > 100 µM |  |  |  |  |  |  | 
16 | Cc1ccc(NC(=O)/C(Cc2cc(=O)oc3cc(O)ccc23)=N\NC(C)(C)C)cc1C |  | > 100 µM |  | > 100 µM |  | > 100 µM |  | > 100 µM |  |  |  | > 100 µM |  |  | 
17 | CC([C@H]1CC=C2C3CCC4=C[C@@H](N(C)C)CC[C@]4(C)C3CC[C@@]21C)N(C)C (stereo partly specified) | 6.63 µM | 20.4 µM | 2 µM | 4.94 µM | 1.98 µM | 9.4 µM | 1.17 µM | 7.77 µM |  |  |  |  |  |  | 
18 | COc1cc(C(=O)O[C@H](C(=O)NCCN(C)CCNC(=O)[C@@H](OC(=O)c2cc(OC)cc3c(C)cccc23)[C@]2(C)CO2)[C@]2(C)CO2)c2cccc(C)c2c1 | < 0.0328 µM | 0.162 µM | < 0.01 µM | 0.0398 µM | < 0.01 µM | 0.327 µM | 0.0924 µM | 1.7 µM |  |  |  |  |  |  | 
19 | CN(C)CCCC1(c2ccc(F)cc2)OCc2cc(-c3cc4ccccc4s3)ccc21 (stereo unspecified) | 1.79 µM | 3.24 µM | 1.83 µM | 3.32 µM | 1.75 µM | 3.47 µM | 2.04 µM | 3.75 µM |  |  |  |  |  |  | 
20 | COc1ccc2c(c1OC)C(C(Cl)(Cl)Cl)N1CCc3cc4c(cc3C1=C2)OCO4 (stereo unspecified) |  | 84.7 µM |  | 27 µM |  | > 100 µM |  | > 100 µM |  |  |  | 41 µM |  |  | 
21 | Cn1c(-c2ccccc2)c(/C=C/C2=[N+](C)c3ccccc3C2(C)C)c2ccccc21 | 1.87 µM | 12.7 µM | 0.486 µM | 4.02 µM | 0.817 µM | 10.8 µM | 0.34 µM | 9.07 µM |  |  |  |  |  |  | 
22 | COC(=O)C(=O)C(C(=O)C(=O)Nc1ccccc1OC)c1nc2ccc([N+](=O)[O-])cc2[nH]c1=O (stereo unspecified) |  |  |  | > 100 µM |  | > 100 µM |  | > 100 µM |  |  |  | > 100 µM |  |  | 
23 | COc1cc2c(cc1OC)C1Cc3ccc(OC)c(OC)c3C[N+]1([O-])CC2 (stereo unspecified) |  |  |  |  |  |  |  |  |  | > 100 µM |  |  |  |  | 
24 | CCCCCC[C@@H](C)NC(=O)c1ccc(Nc2nc3ccccc3c3occc23)cc1 | 1.92 µM | 13.2 µM | 2.98 µM | > 100 µM | 7.58 µM | > 100 µM |  |  |  |  |  |  |  |  | 
25 | C[n+]1c2ccccc2nc2ccccc21 | 1.57 µM | 3.12 µM | 0.516 µM | 1.75 µM | 0.353 µM | 1.59 µM | 1.07 µM | 2.72 µM |  |  |  |  |  |  | 
26 | NC(N)=NC(N)=NCCCc1ccco1 | 140 µM | > 500 µM | 21.5 µM | 82.4 µM | 334 µM | > 500 µM | 71.7 µM | 319 µM |  |  |  |  |  |  | 
27 | Cc1ccc(S(=O)(=O)c2ccc(C)cc2[N+](=O)[O-])cc1 |  |  |  |  |  |  |  |  | > 100 µM | > 100 µM | > 100 µM |  |  |  | 
28 | C=C1C(=O)O[C@H]2[C@H]1CC/C(COC(=O)CCCc1c[nH]c3ccccc13)=C\CC[C@@]1(C)O[C@@H]21 | 1.67 µM | 3.18 µM | 1.74 µM | 3.55 µM | 1.42 µM | 3.85 µM | 2.17 µM | 4.81 µM |  |  |  |  |  |  | 
